Values joined by “and” are separate entries in the source; they are usually repeats but may differ in a detail not shown here. Equal entries are not always repeated.
Tests used:
MLO-Y4 osteocytic cells = test: Etoposide-induced apoptosis of MLO-Y4 osteocytic cells (trypan blue uptake); format: cell-based, murine
Description: Cells were pretreated with the indicated concentrations of the compounds for 1 hour before the addition of the pro-apoptotic agent etoposide. Apoptosis was determined after 6 hour by trypan blue uptake as described in FIG. 3. * indicates p<0.05 versus etoposide alone, by ANOVA (Student-Newman-Keuls method).
MLO-Y4 cells were pretreated for 1 hour with the pure receptor antagonist ICI182,780 (10^−7 M) before the addition of the test agents (10^−8 M). Apoptosis was induced and quantified as described in FIG. 3. * indicates p<0.05 versus etoposide alone, by ANOVA (Student-Newman-Keuls method).
In this experiment, MLO-Y4 cells were pretreated with the indicated concentrations of the various compounds for 1 h before the addition of the pro-apoptotic agent, etoposide. Apoptosis was determined after 6 h by trypan blue uptake as described in FIG. 3.

[1] = BMD by dual-energy x-ray absorptiometry in intact or ovariectomized mice, 28 days; format: in vivo; parameters: global 1 (BMD) / hindquart 1 (BMD) / spine 1 (BMD) / global 2 (BMD) / hindquart 2 (BMD) / spine 2 (BMD) / global 1 (BMD), mean / hindquart 1 (BMD), mean / spine 1 (BMD), mean / global 2 (BMD), mean / hindquart 2 (BMD), mean / spine 2 (BMD), mean: unit not given here; details: for Global BMD: 2000 ng/g body weight for 28 days, mean; for global 2 (BMD), mean / hindquart 2 (BMD), mean / spine 2 (BMD), mean / global 2 (BMD) / hindquart 2 (BMD) / spine 2 (BMD): 2000 ng/g for 28 days, end of experiment; for global 2 (BMD), mean / hindquart 2 (BMD), mean / spine 2 (BMD), mean / global 1 (BMD), mean / hindquart 1 (BMD), mean / spine 1 (BMD), mean: group mean; for global 2 (BMD) / hindquart 2 (BMD) / spine 2 (BMD) / global 1 (BMD) / hindquart 1 (BMD) / spine 1 (BMD): individual animals; for global 1 (BMD), mean / hindquart 1 (BMD), mean / spine 1 (BMD), mean / global 1 (BMD) / hindquart 1 (BMD) / spine 1 (BMD): 2000 ng/g group, day 0 initial measurement
Description: In a representative experiment of this sort, six 4-5 month old female mice per group are screened twice for BMD in a four week period immediately prior to the initiation of the experiment to establish that peak adult bone mass has been attained. A subset of mice are then ovariectomized. Intact and ovariectomized mice are treated with vehicle, or 20, 200 or 2000 ng/g body weight estratriene-3-ol or another test compound.
Stock solutions of the test agents (10,000 μg/ml) are maintained in approximately 2.0 ml of 95% ethanol. These stocks are diluted in 95% ethanol to make 1000 μg/ml and 100 μg/ml concentrations. The concentration of the stocks is checked spectrophotometrically. For each animal injection, the test agent is diluted in sesame oil and sonicated. Test agents are administered for 28 days by subcutaneous injections on alternative days. The mice are weighed weekly and serum samples are collected at appropriate times for analysis of bone biochemical markers, such as osteocalcin or collagen cross-links. Tetracycline labeling is performed by administration of the antibiotic (30 mg/kg) at 2 and 8 days prior to the end of each experiment.
During the 28 day experiment, BMD is determined in live animals at day 0, 14 and 28. Following animal sacrifice at the end of the experiment, the vertebral bones L1-L4 are collected for fixation and embedded undecalcified in methylmethacrylate plastic for the determination of the prevalence of osteoblast and osteocyte apoptosis and other static and dynamic histomorphometric measurements. L5 vertebrae are isolated for determining anti-fracture efficacy of the compounds by assaying compression, 3 point bending and other appropriate biomechanical tests. Results confirming the expected efficacy of these compounds show decreased prevalence of osteoblast and/or osteocyte apoptosis, and/or positive BMD changes, and/or increased cancellous bone area, and/or increased rate of bone formation, and/or increased biomechanical strength.
As an example, the results of an experiment whereby 2000 ng/g body weight of estratriene-3-ol was administered for 28 days to estrogen-replete (intact) or estrogen-deficient (ovariectomized) mice are shown in Table 2.
Each row represents values for individual animals. The first three sets of numbers represent the initial BMD measurements (by dual-energy x-ray absorptiometry with Hologic QDR2000 plus, using customized software) at day 0 and the last three BMD measurements at the end of the experiment. Global=BMD of the entire skeleton minus the head and tail; hindquarters=the mean BMD of both hindlimbs; spine=the BMD of cervical, thoracic and lumbar spine.

[2] = Vertebral compression strength of fifth lumbar vertebrae (L5); format: in vivo, mice; details: 2000 ng/g body weight for 28 days, mean
Description: In a representative experiment of this sort, seven 4-5 month old female mice per group are screened twice for BMD in a four week period immediately prior to the initiation of the experiment to establish that peak adult bone mass has been attained. A subset of mice are then ovariectomized. Intact and ovariectomized mice are treated with vehicle, or 20, 200 or 2000 ng/g body weight estratriene-3-ol or another ANGEL compound. […] Ultimate load bearing properties of the fifth lumbar murine vertebrae (L5) is determined. This is done using a servohydraulic axial-torsional material testing machine (Model MTS 810 Bionx; MTS Systems Corp., Eden Prairie, Minn.) and a Lebow load cell (Eaton Products, Troy, Mich.). Data are recorded and analyzed using the LabVIEW software package and an acquisition/signal conditioning board (Model NB-MIO-16, National Instruments Corporation, Austin, Tex.). The L5 specimens that is used for ultimate load bearing is cleaned of surrounding soft tissue and the length and diameter recorded with a digital caliper at a resolution of 0.01 mm (Mitutoyo Model #500-196, Ace Tools, Ft. Smith, Ark.). […] Vertebrae are individually compressed between parallel loading platens along the cephalocaudad axis until failure and the ultimate load (in Newtons) and displacement (in mm) are recorded. […]

[3] = Ovx mice, t-test ovx vs 2000 ng/g 0.0001

C[C@@]12CCC[C@H]1[C@@H]1CCc3cc(O)ccc3[C@H]1CC2 [estratriene-3-ol]
Inhibition of etoposide-induced apoptosis of osteocytic cell line (MLO-Y4 osteocytic cells; 1 h pretreatment before etoposide, trypan blue after 6 h): dose-dependently inhibited
Antiapoptotic effect on osteocytes after ICI182,780 (MLO-Y4 osteocytic cells; 1 h pretreatment with ICI182,780 10^−7 M): abrogated
Global BMD ([1]; Ovx mice, p < 0.00001): 0.0555 ± 0.0011 g/cm2
global 2 (BMD), mean ([1]; Ovx mice, t-test ovx vs 2000 ng/g 0.0000): 0.0555
hindquart 2 (BMD), mean [1, 3]: 0.0618
spine 2 (BMD), mean [1, 3]: 0.0599
global 2 (BMD) ([1]; Ovx mice): 0.0565 and 0.0557 and 0.0548 and 0.0545 and 0.0564 and 0.0568 and 0.0550 and 0.0539
hindquart 2 (BMD) ([1]; Ovx mice): 0.0602 and 0.0632 and 0.0599 (2×) and 0.0624 and 0.0598 and 0.0647 and 0.0630
spine 2 (BMD) ([1]; Ovx mice): 0.0608 and 0.0585 and 0.0584 and 0.0598 and 0.0610 and 0.0625 and 0.0578 and 0.0605
global 1 (BMD), mean ([1]; Ovx mice): 0.0534
hindquart 1 (BMD), mean ([1]; Ovx mice): 0.0573
spine 1 (BMD), mean ([1]; Ovx mice): 0.0579
global 1 (BMD) ([1]; Ovx mice): 0.0505 and 0.0542 and 0.0496 and 0.0540 and 0.0526 and 0.0569 and 0.0565 and 0.0528
hindquart 1 (BMD) ([1]; Ovx mice): 0.0527 and 0.0588 and 0.0504 and 0.0596 and 0.0547 and 0.0604 and 0.0591 and 0.0582
spine 1 (BMD) ([1]; Ovx mice): 0.0547 and 0.0581 and 0.0542 and 0.0586 and 0.0580 and 0.0628 and 0.0603 and 0.0568
Global BMD ([1]; intact mice, p < 0.002): 0.0554 ± 0.0015 g/cm2
global 2 (BMD), mean ([1]; intact mice, t-test vehicle vs 2000 ng/g 0.0036): 0.0554
spine 2 (BMD), mean ([1]; intact mice, t-test vehicle vs 2000 ng/g 0.0037): 0.0609
hindquart 2 (BMD), mean ([1]; intact mice, t-test vehicle vs 2000 ng/g 0.0077): 0.0605
global 2 (BMD) ([1]; intact mice): 0.0550 and 0.0543 and 0.0541 and 0.0568 (2×) and 0.0537 and 0.0574
hindquart 2 (BMD) ([1]; intact mice): 0.0585 and 0.0603 and 0.0619 and 0.0629 and 0.0640 and 0.0554 and 0.0605
spine 2 (BMD) ([1]; intact mice): 0.0602 and 0.0604 and 0.0601 and 0.0613 and 0.0620 and 0.0588 and 0.0632
global 1 (BMD), mean ([1]; intact mice): 0.0527
hindquart 1 (BMD), mean ([1]; intact mice): 0.0562
spine 1 (BMD), mean ([1]; intact mice): 0.0571
global 1 (BMD) ([1]; intact mice): 0.0486 and 0.0511 and 0.0543 and 0.0537 and 0.0533 and 0.0521 and 0.0560
hindquart 1 (BMD) ([1]; intact mice): 0.0509 and 0.0565 and 0.0605 and 0.0577 and 0.0546 and 0.0544 and 0.0587
spine 1 (BMD) ([1]; intact mice): 0.0511 and 0.0560 and 0.0593 and 0.0584 and 0.0571 and 0.0555 and 0.0623
Vertebral Compression ([2]; Ovx mice, p < 0.00001): 85.57 ± 10.17 Newtons
Vertebral Compression ([2]; intact mice, p < 0.006): 96.26 ± 15.92 Newtons
